Reference: patent US9969716B2, “Indole derivatives as modulators of methyl modifying enzymes, compositions and uses thereof” (Constellation Pharmaceuticals, Inc., priority 2013, dated 2018)

Columns and labels:
[1] = target: EZH2 (Homo sapiens, UniProt Q15910); test: EZH2 assay (rPRC2, 3H SAM methyl transfer to biotinylated oligonucleosomes, FlashPlate); assay type: biochemical
Protocol: EZH2 Assay: Assays were carried out by mixing rPRC2 together with biotinylated oligonucleosome substrates in the presence of the radio-labeled enzyme co-factor, S-adenosyl-L-methionine (^3H SAM) (Perkin Elmer) and monitoring the enzymatically mediated transfer of tritiated methyl groups from ^3H SAM to histone lysine residues. The amount of resulting tritiated methyl histone product was measured by first capturing the biotinylated oligonucleosomes in streptavidin (SAV) coated FlashPlates (Perkin Elmer), followed by a wash step to remove un-reacted ^3H SAM, and then counting on a TopCount NXT 384 well plate scintillation counter (Perkin Elmer). The final assay conditions for EZH2 were as follows: 50 mM Tris Buffer pH 8.5, 1 mM DTT, 69 μM Brij-35 detergent, 5.0 mM MgCl2, 0.1 mg/mL BSA, 0.2 μM ^3H SAM, 0.2 μM biotinylated oligonucleosomes, 3.6 μM H3K27me3 peptide and 2 nM EZH2.
A 12.5 μL volume of the HMT enzyme, H3K27me3 peptide and oligonucleosome substrate in assay buffer was added to each well of the assay plate using a Multidrop Combi (ThermoFisher). Compounds were pre-incubated with the enzyme for 20 min, followed by initiation of the methyltransferase reaction by addition of 12.5 μL of ^3H SAM in assay buffer (final volume=25 μL). The final concentrations of compounds ranged from a top default concentration of 80 μM down to 0.16 μM in ten 2-fold dilution steps. Reactions were carried out for 60 minutes and quenched with 20 μL per well of 1.96 mM SAH, 50 mM Tris pH 8.5, 200 mM EDTA. Stopped reactions were transferred to SAV coated Flashplates (Perkin Elmer), incubated for 120 min, washed with a plate washer, and then read on the TopCount NXT (1.0 min/well) to measure the amount of methyl histone product formed during the reaction.

[2] = tested on: H3K27me3 mark in HeLa cells; test: H3K27me3 Alpha Hela Assay (AlphaLISA); assay type: cell-based; settings: Homo sapiens, 72 hrs, read-out: EZH2_Cell_H3K27me3_Alpha_HeLa (EC50_K27me3)
Protocol: Ten different doses of each test compound (in a series of 3-fold dilutions) were plated in duplicate 384-well tissue culture treated plates (Catalog #781080; Greiner Bio One; Monroe, N.C.). Hela cells grown in culture were trypsinized and counted using a Countess® cell counter (Catalog # C10281; Life Technologies, Grand Island, N.Y.). Cell were diluted to 67,000 cells per mL in 10% DMEM (Catalog #10569-010 Life Technologies, Grand Island, N.Y.) and 15 μL (1,000 cells) were plated into each well using the Biotek MicroFlo™ Select Dispenser (BioTek Instruments, Inc. Vermont, USA),) of the 384-well plate. Plates were incubated at 37° C./5% CO2 for 72 hrs. One of the duplicate plates was processed for HeLa assay and the other for viability.
To the plate processed for AlphaLISA was added 5 μL per well Cell-Histone Lysis buffer (1λ) (Catalog # AL009F1 Perkin Elmer; Waltham, Mass.) and the plate was incubated at RT for 30 minutes on a plate shaker with low speed (Model#4625-Q Thermo Scientific; Waltham, Mass.). Then, 10 μL per well Histone Extraction buffer (catalog # AL009F2; Perkin Elmer; Waltham, Mass.) was added and the plate further incubated at RT for 20 min on plate shaker with low speed. To each well was then added 10 μL per well of a 5× mix of anti-K27me3 acceptor beads plus Biotinylated anti-Histone H3 (C-ter) Antibody (diluted to 3 nM final) (Catalog #AL118 Perkin Elmer; Waltham, Mass.). Dilution of the acceptor beads and then anti-Histone H3 was with 1× Histone Detection buffer (Catalog # AL009F3 Perkin Elmer; Waltham, Mass.) which was produced diluted from the 10× stock provided. The plate was sealed with an aluminum plate sealer and incubated at 23° C. for 60 min. We then added 10 μL 5× solution of Streptavidin Donor beads (Catalog #6760002 Perkin Elmer; Waltham, Mass.) (20 μg/mL final in 1× Histone Detection Buffer), sealed the plate with Aluminum plate sealer and incubated at 23° C. for 30 min. The plates were then read using an EnVision-Alpha Reader (model #2104 Perkin Elmer; Waltham, Mass.).
Data from both assays was analyzed using Assay Assistant (Constellation Pharmaceuticals In-house product) and Activity Base (IDBS Ltd, Surrey, UK) template. Data files were imported to Assay Assistant and assay conditions were specified. A unique Analysis ID was created and the data files exported to Activity Base. An analysis template was created on Activity Base to measure dose-dependent inhibition of H3K27me3 mark and cell viability respectively. Readout of DMSO wells were used to normalize the data. Resulting curves were fitted using Activity base software Model 205 (IDBS Ltd, Surrey, UK). The data was checked for quality, validated and integrated in excel format using SARview (IDBS Ltd, Surrey, UK).

Chain of EZH2 (Q15910 whole entry): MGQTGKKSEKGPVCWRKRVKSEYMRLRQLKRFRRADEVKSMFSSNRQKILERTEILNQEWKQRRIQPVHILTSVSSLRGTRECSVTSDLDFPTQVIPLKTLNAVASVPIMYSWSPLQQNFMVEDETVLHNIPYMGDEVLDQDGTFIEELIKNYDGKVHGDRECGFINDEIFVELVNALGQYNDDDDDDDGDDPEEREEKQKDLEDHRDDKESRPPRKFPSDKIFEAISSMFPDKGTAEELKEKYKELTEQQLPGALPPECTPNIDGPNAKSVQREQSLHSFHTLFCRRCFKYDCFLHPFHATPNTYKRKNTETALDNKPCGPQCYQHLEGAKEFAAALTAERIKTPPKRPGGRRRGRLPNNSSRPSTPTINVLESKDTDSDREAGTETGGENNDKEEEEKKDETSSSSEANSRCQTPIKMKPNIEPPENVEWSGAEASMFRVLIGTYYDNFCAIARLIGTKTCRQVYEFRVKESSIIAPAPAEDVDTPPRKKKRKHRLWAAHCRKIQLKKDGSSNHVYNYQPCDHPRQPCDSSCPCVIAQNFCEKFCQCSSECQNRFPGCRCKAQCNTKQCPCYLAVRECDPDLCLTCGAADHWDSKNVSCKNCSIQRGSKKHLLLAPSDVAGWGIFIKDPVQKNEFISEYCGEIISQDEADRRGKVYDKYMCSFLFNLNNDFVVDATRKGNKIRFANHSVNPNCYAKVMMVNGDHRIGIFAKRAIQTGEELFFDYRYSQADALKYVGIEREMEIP
Chain of EZH2 (O75530 whole entry partner): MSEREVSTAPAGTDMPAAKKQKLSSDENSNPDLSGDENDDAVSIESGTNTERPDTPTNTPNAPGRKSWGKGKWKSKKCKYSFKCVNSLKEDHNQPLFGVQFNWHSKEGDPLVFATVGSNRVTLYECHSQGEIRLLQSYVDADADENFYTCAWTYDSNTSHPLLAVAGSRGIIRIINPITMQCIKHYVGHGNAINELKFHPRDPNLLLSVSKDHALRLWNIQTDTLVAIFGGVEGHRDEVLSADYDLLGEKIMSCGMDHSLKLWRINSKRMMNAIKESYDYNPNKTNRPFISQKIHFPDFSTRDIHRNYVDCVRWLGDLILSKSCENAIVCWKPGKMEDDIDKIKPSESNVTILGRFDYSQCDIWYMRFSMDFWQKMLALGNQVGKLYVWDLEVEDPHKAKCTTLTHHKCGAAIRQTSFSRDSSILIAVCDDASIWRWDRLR
Chain of EZH2 (Q15022 whole entry partner): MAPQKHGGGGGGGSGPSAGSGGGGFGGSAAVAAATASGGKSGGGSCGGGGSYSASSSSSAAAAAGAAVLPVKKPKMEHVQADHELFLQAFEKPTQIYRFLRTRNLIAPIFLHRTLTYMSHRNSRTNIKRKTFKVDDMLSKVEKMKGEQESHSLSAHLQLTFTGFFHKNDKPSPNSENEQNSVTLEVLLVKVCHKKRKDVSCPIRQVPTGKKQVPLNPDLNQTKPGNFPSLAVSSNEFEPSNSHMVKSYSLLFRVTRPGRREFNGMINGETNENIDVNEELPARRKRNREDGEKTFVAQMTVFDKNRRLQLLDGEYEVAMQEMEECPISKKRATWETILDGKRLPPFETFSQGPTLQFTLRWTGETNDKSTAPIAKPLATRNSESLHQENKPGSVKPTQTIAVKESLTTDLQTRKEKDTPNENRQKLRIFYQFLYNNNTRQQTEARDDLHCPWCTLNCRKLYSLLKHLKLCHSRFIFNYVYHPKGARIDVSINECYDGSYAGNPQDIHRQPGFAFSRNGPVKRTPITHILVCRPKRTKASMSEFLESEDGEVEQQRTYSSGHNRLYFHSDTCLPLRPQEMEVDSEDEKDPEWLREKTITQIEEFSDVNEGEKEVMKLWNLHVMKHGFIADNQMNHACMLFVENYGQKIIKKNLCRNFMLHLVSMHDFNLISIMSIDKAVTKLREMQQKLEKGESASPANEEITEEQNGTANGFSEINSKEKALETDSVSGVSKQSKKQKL

Row | SMILES | IC50 [1] | EC50 [2]
1 | COc1cc(C)[nH]c(=O)c1CNC(=O)c1c(C)n([C@H](C)C2CCN(C(=O)C3(C)COC3)CC2)c2ccccc12 [Compound 189] | < 100 nM | 400 to 2000 nM
2 | COc1cc(C)[nH]c(=O)c1CNC(=O)c1c(C)n([C@H](C)C2CCN(Cc3cc(C)ncn3)CC2)c2ccccc12 [Compound 266] | < 100 nM | < 400 nM
3 | COc1cc(C)[nH]c(=O)c1CNC(=O)c1c(C)n([C@H](C)C2CCN(C(=O)Cc3cc(C)no3)CC2)c2ccccc12 [Compound 247] | < 100 nM | 400 to 2000 nM
4 | COc1cc(C)[nH]c(=O)c1CNC(=O)c1c(C)n([C@H](C)C2CCN(Cc3cnccn3)CC2)c2ccccc12 [Compound 261] | < 100 nM | < 400 nM
5 | COc1cc(C)[nH]c(=O)c1CNC(=O)c1c(C)n([C@H](C)C2CCN(Cc3ccnc(C#N)c3)CC2)c2ccccc12 [Compound 264] | < 100 nM | < 400 nM
6 | COc1cc(C)[nH]c(=O)c1CNC(=O)c1c(C)n([C@H](C)C2CCN(C(=O)C3(F)CCC3)CC2)c2ccccc12 [Compound 265] | < 100 nM | < 400 nM
7 | COc1cc(C)[nH]c(=O)c1CNC(=O)c1c(C)n([C@H](C)C2CCN(Cc3cncnc3)CC2)c2ccccc12 [Compound 240] | < 100 nM | 400 to 2000 nM
8 | COc1cc(C)[nH]c(=O)c1CNC(=O)c1c(C)n([C@H](C)C2CCN(Cc3nccn3C)CC2)c2ccccc12 [Compound 239] | < 100 nM | 400 to 2000 nM
9 | COc1cc(C)[nH]c(=O)c1CNC(=O)c1c(C)n([C@H](C)C2CCN(C(=O)C3(C)CN(C)C3)CC2)c2ccccc12 [Compound 192] | < 100 nM | > 2000 nM
10 | COc1cc(C)[nH]c(=O)c1CNC(=O)c1c(C)n([C@H](C)C2CCN(C(=O)C3(F)CCN(C)CC3)CC2)c2ccccc12 [Compound 242] | < 100 nM | 400 to 2000 nM
11 | COc1cc(C)[nH]c(=O)c1CNC(=O)c1c(C)n([C@H](C)C2CCN(C(=O)C(C)(C)OC)CC2)c2ccccc12 [Compound 236] | < 100 nM | < 400 nM
12 | COCC(F)(F)CN1CCC([C@@H](C)n2c(C)c(C(=O)NCc3c(OC)cc(C)[nH]c3=O)c3ccccc32)CC1 [Compound 181] | < 100 nM | < 400 nM
13 | COc1cc(C)[nH]c(=O)c1CNC(=O)c1c(C)n([C@H](C)C2CCN(C(=O)N3CCC(F)(F)CC3)CC2)c2ccccc12 [Compound 249] | < 100 nM | 400 to 2000 nM
14 | COc1cc(C)[nH]c(=O)c1CNC(=O)c1c(C)n([C@H](C)C2CCN(Cc3ccc(C#N)cc3)CC2)c2ccccc12 [Compound 232] | < 100 nM | < 400 nM
15 | COc1cc(C)[nH]c(=O)c1CNC(=O)c1c(C)n([C@H](C)C2CCN(C(=O)CC#N)CC2)c2ccccc12 [Compound 186] | < 100 nM | 400 to 2000 nM
16 | COC(C)(C)CN1CCC([C@@H](C)n2c(C)c(C(=O)NCc3c(Cl)cc(C)[nH]c3=O)c3ccccc32)CC1 [Compound 262] | < 100 nM | < 400 nM
17 | COc1cc(C)[nH]c(=O)c1CNC(=O)c1c(C)n([C@H](C)C2CCN(Cc3ccncc3)CC2)c2ccccc12 [Compound 245] | < 100 nM | < 400 nM
18 | COc1cc(C)[nH]c(=O)c1CNC(=O)c1c(C)n([C@H](C)C2CCN(C(=O)C3CCOC3)CC2)c2ccccc12 (stereo partly shown) [Compound 270] | < 100 nM | > 2000 nM
19 | COc1cc(C)[nH]c(=O)c1CNC(=O)c1c(C)n([C@H](C)C2CCN(Cc3cccc(F)c3)CC2)c2ccccc12 [Compound 263] | < 100 nM | < 400 nM

Row | SMILES | IC50 [1] | EC50 [2]
20 | COC(C)(C)CN1CCC([C@@H](C)n2c(C)c(C(=O)NCc3c(C)cc(C)[nH]c3=O)c3ccccc32)CC1 [Compound 127] | < 100 nM | < 400 nM
21 | COc1cc(C)[nH]c(=O)c1CNC(=O)c1c(C)n([C@H](C)C2CCN(C(C)C(F)F)CC2)c2ccccc12 (stereo partly shown) [Compound 177] | < 100 nM | < 400 nM
22 | COc1cc(C)[nH]c(=O)c1CNC(=O)c1c(C)n([C@H](C)C2CCN(C(=O)Cc3ccccc3)CC2)c2ccccc12 [Compound 212] | < 100 nM | < 400 nM
23 | COc1cc(C)[nH]c(=O)c1CNC(=O)c1c(C)n([C@H](C)C2CCN(CC3(F)COC3)CC2)c2ccccc12 [Compound 222] | < 100 nM | < 400 nM
24 | COc1cc(C)[nH]c(=O)c1CNC(=O)c1c(C)n([C@H](C)C2CCN(CC3CCO3)CC2)c2ccccc12 (stereo partly shown) [Compound 179] | < 100 nM | 400 to 2000 nM
25 | COc1cc(C)[nH]c(=O)c1CNC(=O)c1c(C)n([C@H](C)C2CCN(Cc3cnn(C)c3)CC2)c2ccccc12 [Compound 238] | < 100 nM | > 2000 nM
26 | COc1cc(C)[nH]c(=O)c1CNC(=O)c1c(C)n([C@H](C)C2CCN(Cc3cc(C)nc(C)c3)CC2)c2ccccc12 [Compound 252] | < 100 nM | < 400 nM
27 | COc1cc(C)[nH]c(=O)c1CNC(=O)c1c(C)n([C@H](C)C2CCN(C(=O)C3CCOCC3)CC2)c2ccccc12 [Compound 269] | < 100 nM | 400 to 2000 nM
28 | COc1cc(C)[nH]c(=O)c1CNC(=O)c1c(C)n([C@H](C)C2CCN(CC(C)(C)C#N)CC2)c2ccccc12 [Compound 185] | < 100 nM | 400 to 2000 nM
29 | COc1cc(C)[nH]c(=O)c1CNC(=O)c1c(C)n([C@H](C)C2CCN(Cc3ccncn3)CC2)c2ccccc12 [Compound 259] | < 100 nM | < 400 nM
30 | COc1cc(C)[nH]c(=O)c1CNC(=O)c1c(C)n([C@H](C)C2CCN(C(=O)C3(C)CCCC3)CC2)c2ccccc12 [Compound 191] | < 100 nM | 400 to 2000 nM
31 | COc1cc(C)[nH]c(=O)c1CNC(=O)c1c(C)n([C@H](C)C2CCN(CCS(C)(=O)=O)CC2)c2ccccc12 [Compound 207] | < 100 nM | > 2000 nM
32 | CCC(C)C(=O)N1CCC([C@@H](C)n2c(C)c(C(=O)NCc3c(OC)cc(C)[nH]c3=O)c3ccccc32)CC1 (stereo partly shown) [Compound 210] | < 100 nM | 400 to 2000 nM
33 | COc1cc(C)[nH]c(=O)c1CNC(=O)c1c(C)n([C@H](C)C2CCN(CC3COC3)CC2)c2ccccc12 [Compound 180] | < 100 nM | > 2000 nM
34 | COc1cc(C)[nH]c(=O)c1CNC(=O)c1c(C)n([C@H](C)C2CCN(C(=O)C(C)=O)CC2)c2ccccc12 [Compound 211] | < 100 nM | 400 to 2000 nM
35 | COc1cc(C)[nH]c(=O)c1CNC(=O)c1c(C)n([C@H](C)C2CCN(C(=O)Cn3ccnc3C)CC2)c2ccccc12 [Compound 237] | < 100 nM | > 2000 nM
36 | COc1cc(C)[nH]c(=O)c1CNC(=O)c1c(C)n([C@H](C)C2CCN(Cc3cccc(C)n3)CC2)c2ccccc12 [Compound 267] | < 100 nM | < 400 nM
37 | COc1cc(C)[nH]c(=O)c1CNC(=O)c1c(C)n([C@H](C)C2CCN(C(=O)CC(C)C)CC2)c2ccccc12 [Compound 213] | < 100 nM | < 400 nM
38 | COc1cc(C)[nH]c(=O)c1CNC(=O)c1c(C)n([C@H](C)C2CCN(Cc3ccc(C#N)cn3)CC2)c2ccccc12 [Compound 250] | < 100 nM | < 400 nM
